This is an account of results in patent publication US7964594B1, “Amino oxazine derivatives” (Hoffmann-La Roche Inc., priority 2009, dated 2011).

The assay deals with T1, BACE2 (Rattus norvegicus, UniProt Q6IE75).
T1 construct: endogenous cellular BACE2 in the Ins1e rat cell line; endogenous in cells; host or cells: INS-TMEM27 (INS1e-derived rat insulinoma cell line with doxycycline-inducible full-length hTMEM27)
T1 sequence (Q6IE75 63-514): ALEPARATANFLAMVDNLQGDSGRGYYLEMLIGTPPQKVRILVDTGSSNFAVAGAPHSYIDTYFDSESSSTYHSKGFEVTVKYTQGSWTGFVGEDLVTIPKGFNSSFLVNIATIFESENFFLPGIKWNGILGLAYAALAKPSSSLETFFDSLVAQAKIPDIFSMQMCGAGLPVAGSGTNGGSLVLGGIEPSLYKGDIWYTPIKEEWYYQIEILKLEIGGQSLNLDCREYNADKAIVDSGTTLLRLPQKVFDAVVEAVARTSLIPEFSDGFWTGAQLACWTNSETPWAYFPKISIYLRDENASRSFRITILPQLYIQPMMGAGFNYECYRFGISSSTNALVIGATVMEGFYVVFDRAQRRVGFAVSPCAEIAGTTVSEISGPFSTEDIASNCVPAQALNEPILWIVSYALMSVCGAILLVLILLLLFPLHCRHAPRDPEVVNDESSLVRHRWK
Briefly: Assay for BACE inhibition by measuring cellular TMEM27 cleavage (INS-TMEM27 cells, ELISA of shed TMEM27). The class given is cell-based. As to conditions: inhibition of human TMEM27 cleavage by endogenous cellular BACE2 in Ins1e rat cell line; ELISA of culture medium. From the text: Assay for BACE Inhibition by Measuring Cellular TMEM27 Cleavage
The assay uses the principle of inhibition of human TMEM27 cleavage by endogenous cellular BACE2 in the Ins1e rat cell line and shedding from the cell surface into the culture medium, followed by detection in an ELISA assay. Inhibition of BACE2 prevents the cleavage and shedding in a dose-dependent manner.
The stable cell line “INS-TMEM27” represents an INS1e-derived cell line with inducible expression (using the TetOn system) of full-length hTMEM27 in a doxycycline-dependent manner. The cells were cultured throughout the experiment in RPMI1640+Glutamax (Invitrogen) Penicillin/Streptomycin, 10% Fetal bovine serum, […], […], 100 micrograms/ml G418 and 100 microgram/ml hygromycin and were grown in adherent culture at 37° C. in a standard CO2 cell culture incubator.
INS-TMEM27 cells were seeded in 96-well plates. After 2 days in culture, BACE2 inhibitor was added in a range of concentrations as required by the assay and after a further two hours, doxycycline was added to a final concentration of 500 ng/ml. The cells were incubated for a further 46 hours and the supernatant harvested for detection of shed TMEM27.
An ELISA assay (using a pair of mouse anti-human-TMEM27 antibodies, raised against the extracellular domain of TMEM27) was used for detection of TMEM27 in the culture medium. An IC50 for BACE2 inhibition was calculated using the ELISA readout for each inhibitor concentration with standard curve-fitting software XLfit (IDBS) for the Excel spreadsheet program.
(In an ELISA, binding on a coated surface is turned into a signal by an enzyme label.)

As for `C[C@@]1(c2cc(NC(=O)c3ncc(F)cc3Cl)ccc2F)CCOC(N)=N1` [Example 35], the concentration for half-maximal inhibition (IC50) (usually the concentration that inhibits the measured activity by half) was 11 nM. That is a double-digit nanomolar value.

In turn, `C[C@@]1(c2cc(NC(=O)c3ccccn3)ccc2F)CCOC(N)=N1` [Example 4, Pyridine-2-carboxylic acid [3-((S)-2-amino-4-methyl-5,6-dihydro-4H-[1,3]oxazin-4-yl)-4-fluoro-phenyl]-amide] yielded a half-inhibitory concentration (IC50) of 230 nM.

Compound `C[C@@]1(c2cc(NC(=O)c3ccc(OC(F)F)cn3)ccc2F)CCOC(N)=N1` [Example 61, 5-Difluoromethoxy-pyridine-2-carboxylic acid [3-((S)-2-amino-4-methyl-5,6-dihydro-4H-[1,3]oxazin-4-yl)-4-fluoro-phenyl]-amide] returned an IC50 of 474 nM.

For the compound `C[C@@]1(c2cc(NC(=O)C3CC3(F)F)ccc2F)CCOC(N)=N1` (stereo partly drawn) [Example 46, 2,2-Difluoro-cyclopropanecarboxylic acid [3-((S)-2-amino-4-methyl-5,6-dihydro-4H-[1,3]oxazin-4-yl)-4-fluoro-phenyl]-amide], the midpoint of inhibition, the IC50, lay at 70 nM.

As for `CC[C@@]1(c2cc(NC(=O)c3coc(C)n3)ccc2F)CCOC(N)=N1` [Example 24], 1 nM corresponded to half-maximal inhibition (IC50).

Regarding `C[C@@]1(c2cc(NC(=O)c3ncc(F)cc3F)ccc2F)CCOC(N)=N1` [Example 33, 3,5-Difluoro-pyridine-2-carboxylic acid [3-((S)-2-amino-4-methyl-5,6-dihydro-4H-[1,3]oxazin-4-yl)-4-fluoro-phenyl]-amide], the IC50 worked out at 7 nM.

As for `C[C@]1(c2cc(NC(=O)C3(C(F)(F)F)CC3)ccc2F)N=C(N)OCC12CC2` [Example 54, (S)—N-(3-(6-Amino-8-methyl-5-oxa-7-azaspiro[2.5]oct-6-en-8-yl)-4-fluorophenyl)-1-(trifluoromethyl)cyclopropanecarboxamide], inhibition was half-maximal at 810 nM (IC50).

With `Cc1ccc(C(=O)Nc2ccc(F)c([C@]3(C)CCOC(N)=N3)c2)nc1` [Example 15], inhibition was half-maximal at 4.5 nM (IC50).

`COc1ccc(C(=O)Nc2ccc(F)c([C@@]3(C)N=C(N)OCC34CC4)c2)nc1` [Example 39] yielded an IC50 of 91 nM. This IC50 is about 20-fold higher than that of the compound before.

As to `C[C@@]1(c2cc(NC(=O)c3ccc(F)s3)ccc2F)CCOC(N)=N1` [Example 7, 5-Fluoro-thiophene-2-carboxylic acid [3-((S)-2-amino-4-methyl-5,6-dihydro-4H-[1,3]oxazin-4-yl)-4-fluoro-phenyl]-amide], the half-maximal inhibitory concentration (IC50) is 340 nM.

Turning to `Cc1nc(C(=O)Nc2ccc(F)c([C@]3(C)CCOC(N)=N3)c2)co1` [Example 8], half-maximal inhibition (IC50) was put at 19 nM.

On to `C[C@@]1(c2cc(NC(=O)c3cccc(Cl)n3)ccc2F)CCOC(N)=N1` [Example 32, 6-Chloro-pyridine-2-carboxylic acid [3-((S)-2-amino-4-methyl-5,6-dihydro-4H-[1,3]oxazin-4-yl)-4-fluoro-phenyl]-amide], for which inhibition was half-maximal at 4 nM (IC50).

`Cc1ccsc1C(=O)Nc1ccc(F)c([C@]2(C)CCOC(N)=N2)c1` [Example 34] yielded an IC50 of 350 nM.

For the compound `C[C@]1(c2cc(NC(=O)c3ccc(OC(F)F)cn3)ccc2F)N=C(N)OCC12CC2` [Example 42, 5-Difluoromethoxy-pyridine-2-carboxylic acid [3-((S)-6-amino-8-methyl-5-oxa-7-aza-Spiro[2.5]oct-6-en-8-yl)-4-fluoro-phenyl]-amide], it took 210 nM to reach half-maximal inhibition (IC50). This IC50 lies about 1.7-fold lower than the previous one.

The compound `C[C@@]1(c2cc(NC(=O)c3ncccc3C(F)(F)F)ccc2F)CCOC(N)=N1` [Example 16, 3-Trifluoromethyl-pyridine-2-carboxylic acid [3-((S)-2-amino-4-methyl-5,6-dihydro-4H-[1,3]oxazin-4-yl)-4-fluoro-phenyl]-amide] came in with a concentration for half-maximal inhibition (IC50) of 22 nM.

Consider `Cc1conc1C(=O)Nc1ccc(F)c([C@]2(C)CCOC(N)=N2)c1` [Example 63], for which 104 nM corresponded to half-maximal inhibition (IC50).

In the case of `C[C@@]1(c2cc(NC(=O)c3ccc(Cl)cn3)ccc2F)CCOC(N)=N1` [Example 2, 5-Chloro-pyridine-2-carboxylic acid [3-((S)-2-amino-4-methyl-5,6-dihydro-4H-[1,3]oxazin-4-yl)-4-fluoro-phenyl]-amide], the half-inhibitory concentration (IC50) amounted to 10 nM.

`CC[C@@]1(c2cc(NC(=O)c3ccc(Cl)cn3)ccc2F)CCOC(N)=N1` [Example 19, 5-Chloro-pyridine-2-carboxylic acid [3-((S)-2-amino-4-ethyl-5,6-dihydro-4H-[1,3]oxazin-4-yl)-4-fluoro-phenyl]-amide] gave a half-maximal inhibitory concentration (IC50) of 8 nM.

Compound `C[C@@]1(c2cc(NC(=O)c3n[nH]cc3Cl)ccc2F)CCOC(N)=N1` [Example 64] gave a half-inhibitory concentration (IC50) of 464 nM. Against the preceding compound, the IC50 is about 58-fold higher.

Compound `C[C@]1(c2cc(NC(=O)c3ncccc3F)ccc2F)N=C(N)OCC12CC2` [Example 37, 3-Fluoro-pyridine-2-carboxylic acid [3-((S)-6-amino-8-methyl-5-oxa-7-aza-spiro[2.5]oct-6-en-8-yl)-4-fluoro-phenyl]-amide] had an IC50 of 40 nM.

As for `CC[C@@]1(c2cc(NC(=O)c3ncc(Cl)cc3Cl)ccc2F)CCOC(N)=N1` [Example 22], the IC50 worked out at 7 nM. This IC50 lies about 5.7-fold lower than the previous one.

The compound `C[C@]1(c2cc(NC(=O)c3ncc(F)cc3F)ccc2F)N=C(N)OCC12CC2` [Example 49, (S)—N-(3-(6-Amino-8-methyl-5-oxa-7-azaspiro[2.5]oct-6-en-8-yl)-4-fluorophenyl)-3,5-difluoropicolinamide] returned a half-inhibitory concentration (IC50) of 14 nM. This IC50 lies about 2-fold higher than the previous one.

Compound `C[C@]1(c2cc(NC(=O)c3ncccc3C(F)(F)F)ccc2F)N=C(N)OCC12CC2` [Example 51, (S)—N-(3-(6-Amino-8-methyl-5-oxa-7-azaspiro[2.5]oct-6-en-8-yl)-4-fluorophenyl)-3-(trifluoromethyl)picolinamide] yielded an IC50 of 73 nM. Compared with the last compound, the IC50 is about 5.2-fold higher.

Compound `C[C@]1(c2cc(NC(=O)C3CC3(F)F)ccc2F)N=C(N)OCC12CC2` (mixture of isomers) [Example 55, N-(3-((S)-6-Amino-8-methyl-5-oxa-7-azaspiro[2.5]oct-6-en-8-yl)-4-fluorophenyl)-2,2-difluorocyclopropanecarboxamide] registered an IC50 of 2100 nM.

Compound `C[C@@]1(c2cc(NC(=O)CC(F)(F)F)ccc2F)CCOC(N)=N1` [Example 59, N-[3-((S)-2-Amino-4-methyl-5,6-dihydro-4H-[1,3]oxazin-4-yl)-4-fluoro-phenyl]-3,3,3-trifluoro-propionamide] gave an IC50 of 830 nM.

In turn, `C[C@@]1(c2cc(NC(=O)c3ncccc3F)ccc2F)CCOC(N)=N1` [Example 6, 3-Fluoro-pyridine-2-carboxylic acid [3-((S)-2-amino-4-methyl-5,6-dihydro-4H-[1,3]oxazin-4-yl)-4-fluoro-phenyl]-amide] gave a half-inhibitory concentration (IC50) of 19 nM.

The compound `CC1(C(=O)Nc2ccc(F)c([C@]3(C)CCOC(N)=N3)c2)COC1` [Example 62, 3-Methyl-oxetane-3-carboxylic acid [3-((S)-2-amino-4-methyl-5,6-dihydro-4H-[1,3]oxazin-4-yl)-4-fluoro-phenyl]-amide] displayed an IC50 of 9130 nM.

The compound `C[C@@]1(c2cc(NC(=O)c3ccc(F)cn3)ccc2F)CCOC(N)=N1` [Example 3, 5-Fluoro-pyridine-2-carboxylic acid [3-((S)-2-amino-4-methyl-5,6-dihydro-4H-[1,3]oxazin-4-yl)-4-fluoro-phenyl]-amide] gave a 50% inhibitory concentration (IC50) of 6 nM.

Compound `C[C@]1(c2cc(NC(=O)c3ccccn3)ccc2F)N=C(N)OCC12CC2` [Example 43, Pyridine-2-carboxylic acid [3-((S)-6-amino-8-methyl-5-oxa-7-aza-spiro[2.5]oct-6-en-8-yl)-4-fluoro-phenyl]-amide] had a concentration for half-maximal inhibition (IC50) of 18 nM.

Compound `Cc1nc(C(=O)Nc2ccc(F)c([C@]3(C)CCOC(N)=N3)c2)cs1` [Example 28] returned a 50% inhibitory concentration (IC50) of 4 nM.

Consider `COc1cccnc1C(=O)Nc1ccc(F)c([C@]2(C)CCOC(N)=N2)c1` [Example 27, 3-Methoxy-pyridine-2-carboxylic acid [3-((S)-2-amino-4-methyl-5,6-dihydro-4H-[1,3]oxazin-4-yl)-4-fluoro-phenyl]-amide], for which the midpoint of inhibition, the IC50, lay at 23 nM.

`C[C@@]1(c2cc(NC(=O)c3ncccc3-c3ccccc3)ccc2F)CCOC(N)=N1` [Example 12, 3-Phenyl-pyridine-2-carboxylic acid [3-((S)-2-amino-4-methyl-5,6-dihydro-4H-[1,3]oxazin-4-yl)-4-fluoro-phenyl]-amide] returned a 50% inhibitory concentration (IC50) of 34 nM.
